# Test results taken from patent publication US20210321985A1, “COMPOSITIONS AND METHODS FOR TARGETED CONTRAST AGENTS FOR MOLECULAR IMAGING” (ARIZONA BOARD OF REGENTS ON BEHALF OF THE UNIVERSITY OF …, priority 2016, published 2021).
# Assay: Dissolution time of a 2.5-micron encapsulated microbubble in air-saturated liquid
# Format: physicochemical
# Conditions: for Dissolution time: 2.5-micron encapsulated microbubble, air-saturated liquid
Dissolution time [h],stability of microbubbles relative to microbubbles containing C5F12 (from Table 4),stability of microbubbles relative to microbubbles containing C3F8 (from Table 4),stability of microbubbles relative to microbubbles containing C4F10 (from Table 4),Structure (SMILES)
83,,,,FC(F)(F)C(F)(F)C(F)(F)C(F)(F)F [Perfluorobutane]
,only minimal increase in stability,,,FC(F)(F)C(F)(F)C(F)(F)C(F)(F)C(F)(F)C(F)(F)F [Perfluorohexane]
408,,"~14,000 times",about five,"FC(F)(F)C(F)(F)C(F)(F)C(F)(F)C(F)(F)F [Perfluoropentane (DDFP), Perfluoropentane]"
0.7,,,,FC(F)(F)C(F)(F)C(F)(F)F [Perfluoropropane]
